Measurements from US20220290237A1, “METHOD FOR PREDICTING THE RESPONSE OF ANTIPSYCHOTIC DRUGS” (INSERM (INSTITUT NATIONAL DE LA SANTÉ ET DE LA RECHERCHE …, priority 2019, published 2022).

Test system: total RNA from blood samples
Assay: qRT-PCR replication of expression changes after amisulpride treatment in 24 independent subjects
Format: in vivo, human
Details: 4 weeks amisulpride
Description: Total RNA was extracted from blood samples, collected in PAXgene Blood RNA tubes, with the PAXgene Blood miRNA Kit (QIAGEN GmbH, Hilden, Germany) using a standard protocol on QlAcube robot (QIAGEN). A DNase digestion procedure was added after extraction. Total RNA was purified using the RNA Clean & Concentrator™-5 kit following the manufacturer's instructions (Zymo Research Corp., Irvine, USA). RNA quantification was performed on a NanoDrop™ 8000 spectrophotometer, in duplicate. The quality and integrity of the RNA samples were assessed using an Agilent Bioanalyzer 2100 and the RNA6000 Nano Labchip kit (Agilent Technologies). Only samples with an RNA integrity number (RIN) higher than 7 were selected. Three hundred and seventy-six RNA samples fulfilled quality control criteria for RNA-seq analyses, corresponding to two RNA samples (one at inclusion and one after 4 weeks of treatment) for 188 subjects. Forty-eight additional RNAs were available for replication studies, in 24 independent subjects.
Five-hundred nanograms of total RNA was reverse-transcribed using the High-Capacity cDNA Reverse Transcription kit following standard protocol (Thermo Fisher Scientific, Waltham, Mass., U.S.A.). Mixtures of the cDNAs and the TaqMan Universal PCR Master Mix were further loaded in the 384-well low density TaqMan array microfluidic cards (Thermo Fisher Scientific). Real-time PCR reactions were then carried out in an ABI Prism 7900HT sequence detection system (Thermo Fisher Scientific) using manufacturer's instructions. Each assay was carried out in duplicate and threshold cycle (Ct) values were automatically calculated by the SDS 2.2 software (Thermo Fisher Scientific), after having manually set the analysis threshold. Two reference genes (18S, and GUSB) with various expression levels were included in the analyses to perform a relative RNA quantification, using the most suitable reference gene.
For the qRT-PCR analysis, ΔCt values of each gene of interest were calculated before and after treatment and then normalized by subtracting the ΔCt values of the reference gene to generate ΔΔCt values. To select genes with significant expression changes after treatment, the medians of fold changes (2-ΔΔCt) were subsequently compared to a reference (Me=1) using Wilcoxon Rank Sum Test, and an adjusted p-values below 0.1 was considered to be significant.
To validate these DEGs, we used qRT-PCR in 24 independent subjects from the OPTiMiSE cohort, who were not included in the RNA-seq analyses and with a more than 20% improvement in total PANSS score after treatment (FIG. 1). We selected only brain-expressed protein-coding genes that were differentially expressed after treatment in good responders only. In addition, we restricted our selection to genes for which the expression change was correlated with symptom improvement (Table 1). […] In addition, two genes (P4HA2 and TRPC6) were removed from replication studies, because they were not detectable by qRT-PCR. Eleven genes were thus tested in the replication sample.

CCN1CCCC1CNC(=O)c1cc(S(=O)(=O)CC)c(N)cc1OC (centres unmarked) [amisulpride, 4-amino-N-((1-ethyl-2-pyrrolidinyl)methyl)-5-(etgylsulfonyl)-2-methoxybenzamide]
FC, fold-change at week 4 relative to the expression level at inclusion: ACSL5 (ACSL5, replication sample (n = 24)): 1.06 | FC, fold-change at week 4 relative to the expression level at inclusion: ALPL (ALPL, replication sample (n = 24)): 0.77 | FC, fold-change at week 4 relative to the expression level at inclusion: CA4 (CA4, replication sample (n = 24)): 0.71 | FC, fold-change at week 4 relative to the expression level at inclusion: DGAT2 (DGAT2, replication sample (n = 24)): 0.73 | FC, fold-change at week 4 relative to the expression level at inclusion: DHRS13 (DHRS13, replication sample (n = 24)): 0.82 | FC, fold-change at week 4 relative to the expression level at inclusion: GALNT14 (GALNT14, replication sample (n = 24)): 0.76 | FC, fold-change at week 4 relative to the expression level at inclusion: HOMER3 (HOMER3, replication sample (n = 24)): 0.84 | FC, fold-change at week 4 relative to the expression level at inclusion: KAZN (KAZN, replication sample (n = 24)): 0.67 | FC, fold-change at week 4 relative to the expression level at inclusion: KIAA0319 (KIAA0319, replication sample (n = 24)): 0.77 | FC, fold-change at week 4 relative to the expression level at inclusion: SLC4A4 (SLC4A4, replication sample (n = 24)): 0.84 | FC, fold-change at week 4 relative to the expression level at inclusion: WLS (WLS, replication sample (n = 24)): 0.85
